Data as given in article PMC6271933, “Evaluation of the Toxicity of 5-Aryl-2-Aminoimidazole-Based Biofilm Inhibitors against Eukaryotic Cell Lines, Bone Cells and the Nematode Caenorhabditis elegans” (Molecules, 2014).
Where “and” joins values, the source holds several entries; their conditions need not be identical. Equal entries are not always repeated.

System: human cervix carcinoma (HeLa)
Assay: Cytostatic activity against tumor cell lines (cell number by Coulter counter)
Assay type: cell-based
Details: 96 h, concentration inhibiting cell proliferation by 50%, four days incubation, mean of three repeats
Experimental: (§1) The IC50 was defined as the compound concentration required to inhibit cell proliferation by 50%. The therapeutic index (TI) was calculated as the ratio of the compound concentration producing toxicity (IC50) to the concentration needed to exert the desired ‘therapeutic’ effect on biofilms of Salmonella and Pseudomonas, indicated by the BIC50 (dose needed to prevent biofilm formation by 50%). The higher the therapeutic index, the broader the safety window of the compound.
(§2) Murine leukemia (L1210), human T-lymphocyte (CEM) and human cervix carcinoma (HeLa) were suspended at 300,000–500,000 cells/mL of culture medium, and 100 µL of a cell suspension was added to 100 µL of an appropriate dilution of the test compounds in 200 µL-wells of 96-well microtiter plates. After incubation at 37 °C for two (L1210), three (CEM) or four (HeLa) days, the cell number was determined using a Coulter counter. The IC50 was defined as the compound concentration required to inhibit cell proliferation by 50%.

SMILES	IC50 [µM]
Nc1ncc(-c2ccccc2)[nH]1 [compound 1]	145
Nc1ncc(-c2ccc(Cl)cc2)[nH]1 [compound 2]	72.3
Nc1ncc(-c2ccc(-c3ccccc3)cc2)[nH]1 [compound 3]	34
Nc1ncc(-c2ccc([N+](=O)[O-])cc2)[nH]1 [compound 4]	108
Nc1ncc(-c2ccc(Br)cc2)[nH]1 [compound 5, 5-(p-bromophenyl)-2-aminoimidazole]	21.8
CCCCCCCCn1c(-c2ccccc2)cnc1N [compound 6]	3
CCCCCCCCCCCCCn1c(-c2ccc(Cl)cc2)cnc1N [compound 8]	4.5
CCCCCCCn1c(-c2ccc(-c3ccccc3)cc2)cnc1N [compound 9]	8.7
CCCCCCCCn1c(-c2ccc(-c3ccccc3)cc2)cnc1N [compound 10]	6.6
Nc1ncc(-c2ccc(-c3ccccc3)cc2)n1C1CCCC1 [compound 11]	8.2
Nc1ncc(-c2ccc(-c3ccccc3)cc2)n1C1CCCCCC1 [compound 12]	6.6
Nc1ncc(-c2ccc(-c3ccccc3)cc2)n1C1CCCCCCC1 [compound 13]	6.9
CCCCCCCCn1c(-c2ccc(F)cc2)cnc1N [compound 14]	8.6
CCCCCCCCn1c(-c2ccc(SC)cc2)cnc1N [compound 15, N1-octyl-5-[4-SMePh]-2AI]	6.3
CCCCCCCCn1c(-c2cccc(Br)c2)cnc1N [compound 16]	8
COc1cccc(CCn2c(-c3ccc(Cl)c(Cl)c3)cnc2N)c1 [compound 17]	6.6
CCCCNc1ncc(-c2ccccc2)[nH]1 [compound 18]	19.5

System: human T-lymphocyte (CEM)
Assay: as above
Assay type: cell-based
Details: 72 h, concentration inhibiting cell proliferation by 50%, three days incubation, mean of three repeats
Experimental: as §1, §2

SMILES	IC50 [µM]
Nc1ncc(-c2ccccc2)[nH]1 [compound 1]	94.3
Nc1ncc(-c2ccc(Cl)cc2)[nH]1 [compound 2]	49.6
Nc1ncc(-c2ccc(-c3ccccc3)cc2)[nH]1 [compound 3]	13.6
Nc1ncc(-c2ccc([N+](=O)[O-])cc2)[nH]1 [compound 4]	63.7
Nc1ncc(-c2ccc(Br)cc2)[nH]1 [compound 5, 5-(p-bromophenyl)-2-aminoimidazole]	13.9
CCCCCCCCn1c(-c2ccccc2)cnc1N [compound 6]	468
CCCCCCCCCCCCCn1c(-c2ccc(Cl)cc2)cnc1N [compound 8]	6.4
CCCCCCCn1c(-c2ccc(-c3ccccc3)cc2)cnc1N [compound 9]	8.1
CCCCCCCCn1c(-c2ccc(-c3ccccc3)cc2)cnc1N [compound 10]	8.3
Nc1ncc(-c2ccc(-c3ccccc3)cc2)n1C1CCCC1 [compound 11]	2.9
Nc1ncc(-c2ccc(-c3ccccc3)cc2)n1C1CCCCCC1 [compound 12]	5.4
Nc1ncc(-c2ccc(-c3ccccc3)cc2)n1C1CCCCCCC1 [compound 13]	4.9
CCCCCCCCn1c(-c2ccc(F)cc2)cnc1N [compound 14]	7.3
CCCCCCCCn1c(-c2ccc(SC)cc2)cnc1N [compound 15, N1-octyl-5-[4-SMePh]-2AI]	7.2
CCCCCCCCn1c(-c2cccc(Br)c2)cnc1N [compound 16]	9.7
COc1cccc(CCn2c(-c3ccc(Cl)c(Cl)c3)cnc2N)c1 [compound 17]	8.6
CCCCNc1ncc(-c2ccccc2)[nH]1 [compound 18]	667

System: murine leukemia (L1210)
Assay: as above
Assay type: cell-based
Details: Mus musculus, L1210, 48 h; concentration inhibiting cell proliferation by 50%; two days incubation; mean of three repeats
Experimental: as §1, §2

SMILES	IC50 [µM]
Nc1ncc(-c2ccccc2)[nH]1 [compound 1]	62.9
Nc1ncc(-c2ccc(Cl)cc2)[nH]1 [compound 2]	77.5
Nc1ncc(-c2ccc(-c3ccccc3)cc2)[nH]1 [compound 3]	37.4
Nc1ncc(-c2ccc([N+](=O)[O-])cc2)[nH]1 [compound 4]	83.3
Nc1ncc(-c2ccc(Br)cc2)[nH]1 [compound 5, 5-(p-bromophenyl)-2-aminoimidazole]	10.1
CCCCCCCCn1c(-c2ccccc2)cnc1N [compound 6]	3.2
CCCCCCCCCCCCCn1c(-c2ccc(Cl)cc2)cnc1N [compound 8]	7.2
CCCCCCCn1c(-c2ccc(-c3ccccc3)cc2)cnc1N [compound 9]	7.5
CCCCCCCCn1c(-c2ccc(-c3ccccc3)cc2)cnc1N [compound 10]	7.8
Nc1ncc(-c2ccc(-c3ccccc3)cc2)n1C1CCCC1 [compound 11]	4.3
Nc1ncc(-c2ccc(-c3ccccc3)cc2)n1C1CCCCCC1 [compound 12]	8.1
Nc1ncc(-c2ccc(-c3ccccc3)cc2)n1C1CCCCCCC1 [compound 13]	6.9
CCCCCCCCn1c(-c2ccc(F)cc2)cnc1N [compound 14]	3.5
CCCCCCCCn1c(-c2ccc(SC)cc2)cnc1N [compound 15, N1-octyl-5-[4-SMePh]-2AI]	4.1
CCCCCCCCn1c(-c2cccc(Br)c2)cnc1N [compound 16]	6.9
COc1cccc(CCn2c(-c3ccc(Cl)c(Cl)c3)cnc2N)c1 [compound 17]	6.9
CCCCNc1ncc(-c2ccccc2)[nH]1 [compound 18]	46.4

System: C. elegans
Assay: not given
Assay type: in vivo, Caenorhabditis elegans
Details: 25 µM, after 7 days relative to viability at day 0; mean of at least two repeats
Experimental: Eggs of a double mutant (glp-4Dsek-1D) of C. elegans were grown on NGM/OP50 agar plates (NGM agar plates on the surface inoculated with 100 µL of an overnight culture of OP50 Escherichia coli and stored at 4 °C until use) at 25 °C until all nematodes had reached the L4 stage. Worms were collected and washed with M9 buffer (3 g/L KH2PO4, 6 g/L Na2HPO4, 5 g/L NaCl, 1 mM MgSO4). For toxicity testing, 40 to 50 worms were suspended in 250 μL M9 (supplemented with 10 µg/mL cholesterol, 75 µg/mL ampicillin and 100 µg/mL kanamycin) buffer in each well of 24-well microtiter plates, in the presence or absence (0.5% DMSO control) of 25, 100 or 200 µM of the test compounds and grown for 7 days at 25 °C. The percentage survival of the worms in the presence or absence of anti-biofilm compounds was calculated after 7 days relative to their viability at day 0.

SMILES	C. elegans % survival at 25 µM [%]
Nc1ncc(-c2ccccc2)[nH]1 [compound 1]	89.8
Nc1ncc(-c2ccc(Cl)cc2)[nH]1 [compound 2]	84.9
Nc1ncc(-c2ccc([N+](=O)[O-])cc2)[nH]1 [compound 4]	97.3
Nc1ncc(-c2ccc(Br)cc2)[nH]1 [compound 5, 5-(p-bromophenyl)-2-aminoimidazole]	90.6
CCCCCCCCn1c(-c2ccccc2)cnc1N [compound 6]	92.5

Same assay, conditions: 100 µM, 7 days of exposure

SMILES	effect on C. elegans survival at 100 µM
Nc1ncc(-c2ccccc2)[nH]1 [compound 1]	none of the compounds significantly affect

Same assay, conditions: 200 µM, 7 days of exposure

SMILES	effect on C. elegans survival at 200 µM
Nc1ncc(-c2ccccc2)[nH]1 [compound 1]	do not significantly affect survival

System: P. aeruginosa biofilm
Assay: not given
Details: concentration preventing biofilm formation (at 25 °C) by 50%; as previously reported ref 13, 14, 15, 16; read-out: BIC50 P. aeruginosa; cited from earlier work

SMILES	IC50 [µM]
Nc1ncc(-c2ccccc2)[nH]1 [compound 1]	72.6
Nc1ncc(-c2ccc(Cl)cc2)[nH]1 [compound 2]	3.5
Nc1ncc(-c2ccc(-c3ccccc3)cc2)[nH]1 [compound 3]	8.6
Nc1ncc(-c2ccc([N+](=O)[O-])cc2)[nH]1 [compound 4]	34.5
Nc1ncc(-c2ccc(Br)cc2)[nH]1 [compound 5, 5-(p-bromophenyl)-2-aminoimidazole]	3.2
CCCCCCCCn1c(-c2ccccc2)cnc1N [compound 6]	18.5
CCCCCCCCCCCCCn1c(-c2ccc(Cl)cc2)cnc1N [compound 8]	33.9
CCCCCCCn1c(-c2ccc(-c3ccccc3)cc2)cnc1N [compound 9]	25.2
CCCCCCCCn1c(-c2ccc(-c3ccccc3)cc2)cnc1N [compound 10]	8.9
Nc1ncc(-c2ccc(-c3ccccc3)cc2)n1C1CCCC1 [compound 11]	353
Nc1ncc(-c2ccc(-c3ccccc3)cc2)n1C1CCCCCC1 [compound 12]	6.6
Nc1ncc(-c2ccc(-c3ccccc3)cc2)n1C1CCCCCCC1 [compound 13]	3.2
CCCCCCCCn1c(-c2ccc(F)cc2)cnc1N [compound 14]	4.9
CCCCCCCCn1c(-c2ccc(SC)cc2)cnc1N [compound 15, N1-octyl-5-[4-SMePh]-2AI]	2.8
CCCCCCCCn1c(-c2cccc(Br)c2)cnc1N [compound 16]	40.6
CCCCNc1ncc(-c2ccccc2)[nH]1 [compound 18]	31.8

System: S. Typhimurium biofilm
Assay: not given
Details: concentration preventing biofilm formation (at 25 °C) by 50%; as previously reported ref 13, 14, 15, 16; read-out: BIC50 S. Typhimurium; cited from earlier work

SMILES	IC50
Nc1ncc(-c2ccccc2)[nH]1 [compound 1]	130 µM
Nc1ncc(-c2ccc(Cl)cc2)[nH]1 [compound 2]	16 µM
Nc1ncc(-c2ccc(-c3ccccc3)cc2)[nH]1 [compound 3]	17.3 µM
Nc1ncc(-c2ccc([N+](=O)[O-])cc2)[nH]1 [compound 4]	17.6 µM
Nc1ncc(-c2ccc(Br)cc2)[nH]1 [compound 5, 5-(p-bromophenyl)-2-aminoimidazole]	47.9 µM
CCCCCCCCn1c(-c2ccccc2)cnc1N [compound 6]	11.9 µM
CCCCCCCCCCCCCn1c(-c2ccc(Cl)cc2)cnc1N [compound 8]	19.5 µM
CCCCCCCn1c(-c2ccc(-c3ccccc3)cc2)cnc1N [compound 9]	9.3 µM
CCCCCCCCn1c(-c2ccc(-c3ccccc3)cc2)cnc1N [compound 10]	3.3 µM
Nc1ncc(-c2ccc(-c3ccccc3)cc2)n1C1CCCC1 [compound 11]	7.5 µM
Nc1ncc(-c2ccc(-c3ccccc3)cc2)n1C1CCCCCC1 [compound 12]	~12.5 µM and 12.5 µM
Nc1ncc(-c2ccc(-c3ccccc3)cc2)n1C1CCCCCCC1 [compound 13]	~22.9 µM and 22.9 µM
CCCCCCCCn1c(-c2ccc(F)cc2)cnc1N [compound 14]	~10.8 µM and 10.8 µM
CCCCCCCCn1c(-c2ccc(SC)cc2)cnc1N [compound 15, N1-octyl-5-[4-SMePh]-2AI]	6.7 µM
CCCCCCCCn1c(-c2cccc(Br)c2)cnc1N [compound 16]	11.2 µM
COc1cccc(CCn2c(-c3ccc(Cl)c(Cl)c3)cnc2N)c1 [compound 17]	> 400 µM
CCCCNc1ncc(-c2ccccc2)[nH]1 [compound 18]	25.3 µM
